The text below walks through data of ChEMBL document CHEMBL2016467, “Thiosemicarbazone fragment embedded within 1,2,4-triazole ring as inhibitors of Entamoeba histolytica” (Bioorg Med Chem Lett, 2012).

Some results are limits rather than exact numbers.

In one series the test system is Entamoeba histolytica. The experiment in a line: Antiamoebic activity against Entamoeba histolytica HM-1:IMSS trophozoites after 72 hrs by microdilution method. The series is classed as functional, organism-based. On the technique in general: In broth dilution the organism is exposed to a series of concentrations in liquid medium.
For series [1], the system named is MCF7. The experiment in a line: Cytotoxicity against human MCF7 cells after 48 hrs by MTT assay. The settings on record: MCF7, 48 h. The series is classed as cell-based.
The subject of series [2] is MCF7. Description: Cytotoxicity against human MCF7 cells assessed as cell viability at 250 uM after 48 hrs by MTT assay. The settings on record: mcf7, 48 h. The series is classed as cell-based.
A short description of series [3]: Cytotoxicity against human MCF7 cells assessed as cell viability at 2.5 to 100 uM after 48 hrs by MTT assay. The format is cell-based. The following applies: read-out: Activity. On the technique in general: Tetrazolium assays rely on reduction of a dye to a coloured formazan, in cell work by metabolically active cells.

A word on the IC50: it is the concentration at which inhibition is half-maximal. Read a high IC50 as weaker potency. With `COc1cc(/C=N/n2c(S)nnc2-c2ccccc2)cc(OC)c1OC`, in the series with Entamoeba histolytica, 2.7 µM corresponded to half-maximal inhibition (IC50).

In turn, `Nn1c(S)nnc1-c1ccccc1` returned an IC50 in the series with Entamoeba histolytica of 10.8 µM.

On to `Cc1ccc(/C=N/n2c(S)nnc2-c2ccccc2)cc1`, for which the values for the IC50 with Entamoeba histolytica and in the series on MCF7 [1] were 1.38 µM and above 250 µM, respectively. In addition, the Activity result with MCF7 [2] is “Non-toxic”. The viability at 48 h, up to 100 µM in series [3] is 65%.

`COc1ccc(/C=N/n2c(S)nnc2-c2ccccc2)cc1`: the values for the half-maximal inhibitory concentration (IC50) in the series on Entamoeba histolytica and in the series with MCF7 [1] were 0.322 µM and above 250 µM, respectively. For the same compound, the Activity result in the series with MCF7 [2] is on record as “Non-toxic”. Besides, the viability at 48 h, up to 100 µM in series [3] was 60%.

For the compound `COc1ccc(OC)c(/C=N/n2c(S)nnc2-c2ccccc2)c1`, in the series with Entamoeba histolytica, the midpoint of inhibition, the IC50, lay at 8.79 µM.

With `O=[N+]([O-])c1ccc(/C=N/n2c(S)nnc2-c2ccccc2)cc1`, the IC50 was 0.28 µM with Entamoeba histolytica and above 250 µM in the series with MCF7 [1]. Besides, in the series on MCF7 [2], the Activity result was “Non-toxic”. Besides, in series [3], the viability at 48 h, up to 100 µM came out at 60%.

Regarding `CN(C)c1ccc(/C=N/n2c(S)nnc2-c2ccccc2)cc1`, the figures for the half-inhibitory concentration (IC50) in the series with Entamoeba histolytica and in the series with MCF7 [1] were 0.309 µM and above 250 µM, respectively. In the series on MCF7 [2], the Activity result was “Non-toxic”. For the same compound, in series [3], the viability at 48 h, up to 100 µM is 65%.

`FC(F)(F)c1ccccc1/C=N/n1c(S)nnc1-c1ccccc1` gave a 50% inhibitory concentration (IC50) with Entamoeba histolytica of 4.68 µM.

In the case of `S=C(N1CCC(Cc2ccccc2)CC1)N1CCC(c2cccc(Cl)c2)=N1`, in the series on Entamoeba histolytica, the half-inhibitory concentration (IC50) is 1 µM.

For the compound `Cc1nnc2n(NC(=S)NC34CC5CC(CC(C5)C3)C4)c(C)nnc1-2`, half-maximal inhibition with Entamoeba histolytica (IC50) required 0.84 µM.

`O=[N+]([O-])c1ccc(/C=N/NC(=S)N2CCCCCCC2)s1`: the IC50 in the series with Entamoeba histolytica stood at 1.71 µM.

As to `COc1cc(/C=N/n2c(-c3ccccc3)n[nH]c2=S)ccc1O`, in the series with Entamoeba histolytica, 3.05 µM corresponded to half-maximal inhibition (IC50).

In the series on Entamoeba histolytica, `Oc1ccc(/C=N/n2c(-c3ccccc3)n[nH]c2=S)cc1` had an IC50 of 10.2 µM.

Take `S=c1[nH]nc(-c2ccccc2)n1/N=C/c1ccc(Cl)cc1`: the IC50 in the series on Entamoeba histolytica is 9.55 µM.

In the case of `Cc1ncc([N+](=O)[O-])n1CCO` [METRONIDAZOLE], in the series with MCF7 [1], the IC50 was above 250 µM. In addition, the Activity result in the series on MCF7 [2] is given as “Non-toxic”. Further, the viability at 48 h, up to 100 µM in series [3] is above 70%.

In turn, `NNC(N)=S` [THIOSEMICARBAZIDE] registered an IC50 in the series with Entamoeba histolytica of 2.29 µM.
